Reference: patent US6737383B1, “Herbicidal oxadiazolidines” (priority 1999, dated 2004)

Experiments:
bedstraw = experiment: Test B pre/postemergence bedstraw; type: in vivo, Galium aparine; settings: for Bedstraw plant response rating: Rate 62 g/ha
How it was run: (§1)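 Herbicidal effect was estimated by eye on a ten-point control scale after plants spent twelve to sixteen days in a greenhouse following soil or foliar treatment. Foliar sprays targeted plants at one to four leaves; all doses were formulated in a non-phytotoxic solvent with surfactant.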

blackgrass = experiment: Test B pre/postemergence blackgrass; type: in vivo, Alopecurus myosuroides
How it was run: as §1

surinam grass = experiment: Test B pre/postemergence surinam grass; type: in vivo, Brachiaria decumbens
How it was run: as §1

corn = experiment: Test B pre/postemergence corn; type: in vivo, Zea mays
How it was run: as §1

crabgrass = experiment: Test B pre/postemergence crabgrass; type: in vivo, Digitaria sanguinalis
How it was run: as §1

giant foxtail = experiment: Test B pre/postemergence giant foxtail; type: in vivo, Setaria faberii
How it was run: as §1

rape = experiment: Test B pre/postemergence rape; type: in vivo, Brassica napus
How it was run: as §1

sugar beet = experiment: Test B pre/postemergence sugar beet; type: in vivo, Beta vulgaris
How it was run: as §1

velvetleaf = experiment: Test B pre/postemergence velvetleaf; type: in vivo, Abutilon theophrasti
How it was run: as §1

wheat = experiment: Test B pre/postemergence wheat; type: in vivo, Triticum aestivum
How it was run: as §1

wild oat = experiment: Test B pre/postemergence wild oat; type: in vivo, Avena fatua
How it was run: as §1

purple nutsedge = experiment: Test B pre/postemergence purple nutsedge; type: in vivo, Cyperus rotundus
How it was run: as §1

rice = experiment: Test B flood test rice; type: in vivo, Oryza sativa
How it was run: (§2)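 Read-out is a visual response score from 0 (no effect) to 10 (complete control), assigned by comparison with untreated controls. Treatment was applied at the 2-leaf stage, and plants stayed in the greenhouse for twelve to sixteen days before scoring.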

smallflower flatsedge = experiment: Test B flood test smallflower flatsedge; type: in vivo, Cyperus difformis
How it was run: as §2

duck salad = experiment: Test B flood test duck salad; type: in vivo, Heteranthera limosa
How it was run: as §2

bamyardgrass = experiment: Test B flood test barnyardgrass; type: in vivo, Echinochloa crus-galli
How it was run: as §2

[1] = Postemergence, Rate 125 g/ha, scale 0 to 10, 0 is no effect, 10 is complete control
[2] = Rate 250 g/ha, Postemergence, scale of 0 to 10 where 0 is no effect and 10 is complete control
[3] = Preemergence, Rate 62 g/ha, scale of 0 to 10 where 0 is no effect and 10 is complete control
[4] = Preemergence, Rate 250 g/ha, scale of 0 to 10 where 0 is no effect and 10 is complete control
[5] = Preemergence, Rate 500 g/ha, scale of 0 to 10 where 0 is no effect and 10 is complete control
[6] = Rate 62 g/ha, Postemergence, scale 0 to 10 (0 no effect, 10 complete control)
[7] = Rate 500 g/ha, Postemergence, scale 0 to 10, 0 no effect, 10 complete control
[8] = Rate 62 g/ha, headed Pre-emergence (flood test species), scale 0 to 10 (0 no effect, 10 complete control)
[9] = Rate 125 g/ha, Pre-emergence, flood test species, scale 0 to 10 where 0 is no effect and 10 is complete control
[10] = Rate 250 g/ha, Pre-emergence, flood-test species, scale 0 to 10, 0 is no effect, 10 is complete control
[11] = Rate 500 g/ha, Pre-emergence, flood test species, scale 0 to 10 (0 no effect, 10 complete control)

For `CC(C)N(C(=O)n1oc(=O)n(C2CC3CCC2C3)c1=O)c1ccccc1` (stereo not shown) [Compound 328], the “Plant response rating, Bedstraw” value (bedstraw; [1]) was 1, the “Bedstraw plant response rating” value (bedstraw; Preemergence, scale of 0 to 10 where 0 is no effect and 10 is complete control) was 0 and the “Bedstraw plant response rating (0 to 10 scale)” value (bedstraw; Preemergence, Rate 125 g/ha) was 0. The “Bedstraw plant response rating” value (bedstraw; Postemergence, scale 0 to 10 (0 no effect, 10 complete control)) was 0, the “Plant response rating, Bedstraw” value (bedstraw; [2]) was 4 and the “Plant response rating, Blackgrass” value (blackgrass; [1]) was 1. The “Blackgrass plant response rating” value (blackgrass; [3]) was 0, the “Blackgrass plant response rating (0 to 10 scale)” value (blackgrass; Preemergence, Rate 125 g/ha) was 0 and the “Blackgrass plant response rating” value (blackgrass; [4]) was 4. For the same compound, the “Blackgrass plant response rating” value (blackgrass; [5]) was 7, the “Blackgrass plant response rating” value (blackgrass; [6]) was 0 and the “Plant response rating, Blackgrass” value (blackgrass; [2]) was 5. For the same compound, the “Plant response rating, Blackgrass” value (blackgrass; [7]) was 5, the “Plant response rating, B. signalgrass” value (surinam grass; [1]) was 0 and the “B. signalgrass plant response rating” value (surinam grass; [3]) was 0. For the same compound, the “B. signalgrass plant response rating (0 to 10 scale, 0 is no effect, 10 is complete control)” value (surinam grass; Preemergence, Rate 125 g/ha) was 0, the “B. signalgrass plant response rating” value (surinam grass; [4]) was 0 and the “B. signalgrass plant response rating” value (surinam grass; [5]) was 5. For the same compound, the “B. signalgrass plant response rating” value (surinam grass; [6]) was 0, the “Plant response rating, B. signalgrass” value (surinam grass; [2]) was 0 and the “Plant response rating, B. signalgrass” value (surinam grass; [7]) was 0. The “Plant response rating, Corn” value (corn; [1]) was 0, the “Corn plant response rating” value (corn; [3]) was 0 and the “Corn plant response rating (0 to 10 scale)” value (corn; Preemergence, Rate 125 g/ha) was 0. The “Corn plant response rating” value (corn; [4]) was 0, the “Corn plant response rating” value (corn; [5]) was 0 and the “Corn plant response rating” value (corn; [6]) was 0. The “Plant response rating, Corn” value (corn; [2]) was 0, the “Plant response rating, Corn” value (corn; [7]) was 0 and the “Plant response rating, Crabgrass” value (crabgrass; [1]) was 0. The “Crabgrass plant response rating” value (crabgrass; [3]) was 0, the “Crabgrass plant response rating (0 to 10 scale)” value (crabgrass; Preemergence, Rate 125 g/ha) was 0 and the “Crabgrass plant response rating” value (crabgrass; [4]) was 3. For the same compound, the “Crabgrass plant response rating” value (crabgrass; [5]) was 5, the “Crabgrass plant response rating” value (crabgrass; [6]) was 0 and the “Plant response rating, Crabgrass” value (crabgrass; [2]) was 0. For the same compound, the “Plant response rating, Crabgrass” value (crabgrass; [7]) was 2, the “Plant response rating, Giant foxtail” value (giant foxtail; [1]) was 0 and the “Giant foxtail plant response rating” value (giant foxtail; [3]) was 0. The “Giant foxtail plant response rating (0 to 10 scale)” value (giant foxtail; Preemergence, Rate 125 g/ha) was 5, the “Giant foxtail plant response rating” value (giant foxtail; [4]) was 8 and the “Giant foxtail plant response rating” value (giant foxtail; [5]) was 9. The “Giant foxtail plant response rating” value (giant foxtail; [6]) was 0, the “Plant response rating, Giant foxtail” value (giant foxtail; [2]) was 0 and the “Plant response rating, Giant foxtail” value (giant foxtail; [7]) was 1. The “Plant response rating, Rape” value (rape; [1]) was 0, the “Rape plant response rating” value (rape; [3]) was 0 and the “Rape plant response rating (0 to 10 scale)” value (rape; Preemergence, Rate 125 g/ha) was 0. The “Rape plant response rating” value (rape; [4]) was 0, the “Rape plant response rating” value (rape; [5]) was 0 and the “Rape plant response rating” value (rape; [6]) was 0. For the same compound, the “Plant response rating, Rape” value (rape; [2]) was 0, the “Plant response rating, Rape” value (rape; [7]) was 0 and the “Plant response rating, Sugarbeets” value (sugar beet; [1]) was 0. The “Sugarbeets plant response rating” value (sugar beet; [3]) was 0, the “Sugarbeets plant response rating (0 to 10 scale)” value (sugar beet; Preemergence, Rate 125 g/ha) was 0 and the “Sugarbeets plant response rating” value (sugar beet; [4]) was 0. The “Sugarbeets plant response rating” value (sugar beet; [5]) was 0, the “Sugarbeets plant response rating” value (sugar beet; [6]) was 0 and the “Plant response rating, Sugarbeets” value (sugar beet; [2]) was 0. For the same compound, the “Plant response rating, Sugarbeets” value (sugar beet; [7]) was 0, the “Plant response rating, Velvetleaf” value (velvetleaf; [1]) was 0 and the “Velvetleaf plant response rating” value (velvetleaf; [3]) was 0. For the same compound, the “Velvetleaf plant response rating (0 to 10 scale)” value (velvetleaf; Preemergence, Rate 125 g/ha) was 0, the “Velvetleaf plant response rating” value (velvetleaf; [4]) was 0 and the “Velvetleaf plant response rating” value (velvetleaf; [5]) was 0. The “Velvetleaf plant response rating” value (velvetleaf; [6]) was 0, the “Plant response rating, Velvetleaf” value (velvetleaf; [2]) was 0 and the “Plant response rating, Velvetleaf” value (velvetleaf; [7]) was 0. For the same compound, the “Plant response rating, Wheat” value (wheat; [1]) was 0, the “Wheat plant response rating” value (wheat; [3]) was 0 and the “Wheat plant response rating (0 to 10 scale)” value (wheat; Preemergence, Rate 125 g/ha) was 0. For the same compound, the “Wheat plant response rating” value (wheat; [4]) was 0, the “Wheat plant response rating” value (wheat; [5]) was 0 and the “Wheat plant response rating” value (wheat; [6]) was 0. The “Plant response rating, Wheat” value (wheat; [2]) was 0, the “Plant response rating, Wheat” value (wheat; [7]) was 0 and the “Plant response rating, Wild oats” value (wild oat; [1]) was 0. For the same compound, the “Wild oats plant response rating” value (wild oat; [3]) was 0, the “Wild oats plant response rating (0 to 10 scale)” value (wild oat; Preemergence, Rate 125 g/ha) was 0 and the “Wild oats plant response rating” value (wild oat; [4]) was 0. The “Wild oats plant response rating” value (wild oat; [5]) was 1, the “Wild oats plant response rating” value (wild oat; [6]) was 0 and the “Plant response rating, Wild oats” value (wild oat; [2]) was 0. The “Plant response rating, Wild oats” value (wild oat; [7]) was 0, the “Plant response rating, Nutsedge” value (purple nutsedge; [1]) was 0 and the “Nutsedge plant response rating” value (purple nutsedge; [3]) was 0. For the same compound, the “Nutsedge plant response rating (0 to 10 scale)” value (purple nutsedge; Preemergence, Rate 125 g/ha) was 0, the “Nutsedge plant response rating” value (purple nutsedge; [4]) was 0 and the “Nutsedge plant response rating” value (purple nutsedge; [5]) was 0. For the same compound, the “Nutsedge plant response rating” value (purple nutsedge; [6]) was 0, the “Plant response rating, Nutsedge” value (purple nutsedge; [2]) was 0 and the “Plant response rating, Nutsedge” value (purple nutsedge; [7]) was 0. For the same compound, the “Rice plant response rating” value (rice; [8]) was 0, the “Rice plant response rating” value (rice; [9]) was 0 and the “Rice plant response rating” value (rice; [10]) was 0. For the same compound, the “Rice plant response rating” value (rice; [11]) was 7, the “S. Flatsedge plant response rating” value (smallflower flatsedge; [8]) was 0 and the “S. Flatsedge plant response rating” value (smallflower flatsedge; [9]) was 0. The “S. Flatsedge plant response rating” value (smallflower flatsedge; [10]) was 0, the “S. Flatsedge plant response rating” value (smallflower flatsedge; [11]) was 0 and the “Ducksalad plant response rating” value (duck salad; [8]) was 0. For the same compound, the “Ducksalad plant response rating” value (duck salad; [9]) was 0, the “Ducksalad plant response rating” value (duck salad; [10]) was 0 and the “Ducksalad plant response rating” value (duck salad; [11]) was 0. The “Barnyardgrass plant response rating” value (bamyardgrass; [8]) was 0, the “Barnyardgrass plant response rating” value (bamyardgrass; [9]) was 0 and the “Barnyardgrass plant response rating” value (bamyardgrass; [10]) was 0. The “Barnyardgrass plant response rating” value (bamyardgrass; [11]) was 0.
